# Measured values from ChEMBL document CHEMBL5260795, “Antifungal potential of marine natural products” (Eur J Med Chem, 2017).
# Where a SMILES comes first, the peptide text is derived from it. [ ]: non-standard residue; d: D form. The star is where a group is joined. Tridecanoyl(3R-OH,11-Me) = CCC(C)CCCCCCC[C@@H](O)CC(=O)*; X1 = CCC(C)CC(C)CCCCC[C@@H](O)CC(=O)*; X2 = CCC(C)CC(C)CCCC[C@@H](O)CC(=O)*
# Tests used:
# Candida albicans [1] = experiment: Antifungal activity against Candida albicans; type: functional, organism-based
# Aspergillus niger = experiment: Antimicrobial activity against Aspergillus niger incubated for 72 hrs by standard broth dilution method; type: functional
# Botrytis cinerea [2] = experiment: Antimicrobial activity against Botrytis cinerea incubated for 72 hrs by standard broth dilution method; type: functional
# Colletotrichum acutatum [3] = experiment: Antimicrobial activity against Colletotrichum acutatum incubated for 72 hrs by standard broth dilution method; type: functional
# Rhizoctonia solani [4] = experiment: Antimicrobial activity against Rhizoctonia solani incubated for 72 hrs by standard broth dilution method; type: functional
# Candida albicans [5] = experiment: Antimicrobial activity against Candida albicans incubated for 72 hrs by standard broth dilution method; type: functional
# Saccharomyces cerevisiae [6] = experiment: Antimicrobial activity against Saccharomyces cerevisiae incubated for 72 hrs by standard broth dilution method; type: functional
# Gaeumannomyces graminis = experiment: Antimicrobial activity against Gaeumannomyces graminis; type: functional
# Saccharomyces cerevisiae [7] = experiment: Antifungal activity against Saccharomyces cerevisiae; type: functional
# Rhizoctonia solani [8] = experiment: Antifungal activity against Rhizoctonia solani incubated for 48 hrs by standard broth dilution method; type: functional
# Phytophthora capsici = experiment: Antifungal activity against Phytophthora capsici incubated for 48 hrs by standard broth dilution method; type: functional
# Botrytis cinerea [9] = experiment: Antifungal activity against Botrytis cinerea incubated for 48 hrs by standard broth dilution method; type: functional
# Colletotrichum acutatum [10] = experiment: Antifungal activity against Colletotrichum acutatum incubated for 48 hrs by standard broth dilution method; type: functional
# Rhizoctonia solani [11] = experiment: Antifungal activity against Rhizoctonia solani; type: functional
# Botrytis cinerea [12] = experiment: Antifungal activity against Botrytis cinerea; type: functional
# [13] = test system: Colletotrichum gloeosporioides; experiment: Antifungal activity against Colletotrichum gloeosporioides; type: functional
# Candida albicans [14] = experiment: Antimicrobial activity against Candida albicans assessed as reduction of microbial microbial growth; type: functional
# Candida albicans [15] = experiment: Antifungal activity against wild type Candida albicans; type: functional, organism-based
structure (smiles),measurement,setting,value
C/C=C(\NC(=O)[C@@H](NC(=O)[C@H](O)[C@H](O)[C@H](CCCNC(=N)N)NC(=O)[C@@H](C)NC(=O)[C@H](C)[C@H](O)[C@H](C)CC(C)C)[C@@H](C)[C@@H](C)C(N)=O)C(=O)N[C@@H](C(=O)N[C@H](CCCNC(=N)N)C(=O)N[C@@H](CC(C)C)C(=O)N(C)[C@@H](CCC(N)=O)C(=O)N[C@@H](C(=O)N(C)[C@@H](C)C(=O)O)[C@H](OC)c1ccc(O)cc1)[C@@H](C)O,MIC,Candida albicans [1],0.1 µg/mL
C[C@@H]1CCC/C=C/CCC(=O)C[C@@H](O)C/C=C\C=C\[C@@H](O)C/C=C/C=C\C(=O)O1 [MACROLACTIN F],MIC,Aspergillus niger,0.02 µg/mL
same,MIC,Botrytis cinerea [2],0.02 µg/mL
same,MIC,Colletotrichum acutatum [3],0.02 µg/mL
same,MIC,Rhizoctonia solani [4],0.02 µg/mL
same,MIC,Candida albicans [5],0.02 µg/mL
same,MIC,Saccharomyces cerevisiae [6],0.02 µg/mL
CS[C@@]12CC3=CC=C[C@H](O)[C@H]3N1C(=O)[C@@H]1C[C@@H]3C(=O)CC[C@@H](O)[C@@H]3N1C2=O,MIC,Gaeumannomyces graminis,0.25 µg/mL
CC(C)C[C@@H](C)[C@@H](O)[C@@H](C)C(=O)N[C@H](C)C(=O)N[C@@H](CCCNC(=N)N)[C@@H](O)[C@@H](O)C(=O)N[C@H](C(=O)N[C@@H](C(=O)N[C@@H](C(=O)N[C@H](CCCNC(=N)N)C(=O)O)[C@@H](C)O)[C@@H](C)O)[C@@H](C)[C@@H](C)C(N)=O,MIC,Candida albicans [1],0.1 µg/mL
C[C@@H]1CCC/C=C/[C@@H]2O[C@](O)(C[C@@H](O)C/C=C\C=C\C(O[C@@H]3O[C@H](CO)[C@@H](O)[C@H](O)[C@H]3O)C/C=C/C=C\C(=O)O1)[C@H]2O (stereo partly specified),MIC,Saccharomyces cerevisiae [7],0.22 µg/mL
CCC(C)CC(C)CCCCC[C@@H](O)CC(=O)N[C@@H](CC(C)C)C(=O)N[C@@H](CCC(=O)O)C(=O)N[C@@H](CC(C)C)C(=O)N[C@@H](CC(C)C)C(=O)O (stereo partly specified) (X1-LELL-OH),MIC,Rhizoctonia solani [8],0.01 µg/mL
same,MIC,Phytophthora capsici,0.01 µg/mL
same,MIC,Botrytis cinerea [9],0.01 µg/mL
same,MIC,Colletotrichum acutatum [10],0.01 µg/mL
"CCC(C)CCCCCCC[C@@H](O)CC(=O)N[C@@H](CCC(=O)O)C(=O)N[C@@H](CC(C)C)C(=O)N[C@@H](CC(C)C)C(=O)N[C@@H](C(=O)N[C@@H](CC(=O)O)C(=O)N[C@@H](CC(C)C)C(=O)N[C@@H](CC(C)C)C(=O)O)C(C)C (stereo partly drawn) ({Tridecanoyl(3R-OH,11-Me)}-ELL[dV]DLL-OH)",MIC,Rhizoctonia solani [11],4 µg/mL
same,MIC,Botrytis cinerea [12],4 µg/mL
C/C=C(\NC(=O)[C@@H](NC(=O)[C@H](O)[C@H](O)[C@H](CCCNC(=N)N)NC(=O)[C@@H](C)NC(=O)[C@H](C)[C@H](O)[C@H](C)CC(C)C)[C@@H](C)[C@@H](C)C(N)=O)C(=O)N[C@@H](C(=O)N[C@H](CCCNC(=N)N)C(=O)O)[C@@H](C)O,MIC,Candida albicans [1],0.1 µg/mL
CC1=CC[C@]23C[C@H]1C[C@@](C)(O)[C@H]2[C@H](O)C[C@@H]3C,MIC,[13],1 µg/mL
CC1=CCC[C@H](C)[C@@]1(C)CC/C(C)=C/CC/C(C)=C/CS(=O)(=O)CCNC(=N)N,MIC,Candida albicans [14],0.5 µg/mL
C[C@@H]1CCCCC/C=C/[C@H](O)C[C@@H](O)C/C=C\C=C\[C@@H](O)C/C=C/C=C\C(=O)O1,MIC,Aspergillus niger,0.02 µg/mL
same,MIC,Botrytis cinerea [2],0.02 µg/mL
same,MIC,Colletotrichum acutatum [3],0.02 µg/mL
same,MIC,Rhizoctonia solani [4],0.02 µg/mL
same,MIC,Candida albicans [5],0.02 µg/mL
same,MIC,Saccharomyces cerevisiae [6],0.02 µg/mL
CC(=O)O[C@@H]1C[C@H](C)[C@@]23CC=C(C)[C@@H](C2)C[C@@](C)(O)[C@@H]13,MIC,[13],0.125 µg/mL
CC(C)[C@@H](C)[C@@H]1O[C@@H]1[C@@H](C)[C@H]1[C@@H](O)C[C@]2(O)C3=CC=C4C[C@@H](O)CC[C@]4(C)C3[C@H](O)C(=O)[C@]12C (stereo partly specified),MIC,Candida albicans [1],1.56 µg/mL
C=C[C@@](C)(CC/C=C(\C)CC[C@]1(C)C(C=O)=CCC[C@H]1C)S(=O)(=O)CCNC(=N)N,MIC,Candida albicans [14],4 µg/mL
CS[C@@]12C[C@@H]3C(=O)CC[C@H](O)[C@@H]3N1C(=O)[C@]1(SC)C[C@H]3C(=O)CC[C@@H](O)[C@@H]3N1C2=O,MIC,Gaeumannomyces graminis,0.25 µg/mL
CC1CCC/C=C/[C@@H]2O[C@@H](C/C=C\C=C\[C@H](O[C@@H]3O[C@H](CO)[C@@H](O)[C@H](O)[C@H]3O)C/C=C/C=C\C(=O)O1)C[C@@H](O)[C@H]2O (stereo partly specified),MIC,Saccharomyces cerevisiae [7],0.22 µg/mL
C/C(Cl)=C/C=C/C=C/C=C/C=C/C(O)=C1\C(=O)C(CC(N)=O)N([C@@H]2OC[C@@H](O)[C@H](O)[C@H]2O[C@H]2OC[C@H](O[C@H]3O[C@@H](C)[C@H](O)[C@@H]3O)[C@H](O)[C@H]2O)C1=O (stereo partly specified),MIC,Candida albicans [15],1.95 µg/mL
CCC(C)CC(C)CCCC[C@@H](O)CC(=O)N[C@@H](CC(C)C)C(=O)N[C@@H](CCC(=O)O)C(=O)N[C@@H](CC(C)C)C(=O)N[C@@H](CC(C)C)C(=O)O (stereo partly specified) (X2-LELL-OH),MIC,Rhizoctonia solani [8],0.01 µg/mL
same,MIC,Phytophthora capsici,0.01 µg/mL
same,MIC,Botrytis cinerea [9],0.01 µg/mL
same,MIC,Colletotrichum acutatum [10],0.01 µg/mL
CCC/C=C\c1ccccc1/C=C/C(=O)N[C@H]1C(=O)N(C)/C(=C/c2ccc(O)cc2)C(=O)N[C@@H](CC(C)C)C(=O)N[C@H](Cc2ccccc2)C(=O)N[C@@H]([C@H](C)O)C(=O)N[C@@H](CC(N)=O)C(=O)N[C@@H](CO)C(=O)O[C@H](C)[C@@H](NC(=O)C/C=C2/C=CNC[C@H]2/C=C\CCC)C(=O)N(C)/C(=C/c2ccc(O)cc2)C(=O)N[C@@H](CC(C)C)C(=O)N[C@H](Cc2ccccc2)C(=O)N[C@@H]([C@H](C)O)C(=O)N[C@@H](CC(N)=O)C(=O)N[C@@H](CO)C(=O)O[C@@H]1C,IC50,Candida albicans [1],4.14 µg/mL
